{"source": "patent US10770169B2", "about": "“Method of providing a treatment to a subject based on a dynamic pathway map” (THE REGENTS OF THE UNIVERSITY OF CALIFORNIA, priority 2010, dated 2020)", "key": {"[1]": {"system": "luminal, basal, claudin-low and ERBB2AMP breast cancer cell lines", "assay": "Associations of clinically relevant subtypes and response (non-parametric ANOVA or t-test on GI50 ranks)", "assay_type": "cell-based, human", "conditions": "Table 6; most sensitive subtype, FDR p<0.20", "method_in_brief": "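Significance was set at FDR p<0.20 after combining p-values across three test sets. Subtype–response associations came from rank-based non-parametric ANOVA or t-tests on GI50. For three-class comparisons, post-hoc tests of each group against the rest identified the most sensitive group, with FDR correction.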"}, "[2]": {"system": "panel of 55 breast cancer cell lines", "assay": "Cell growth inhibition assay (Cell Titer Glo, 72 h, 9 doses; GI50, TGI, LC50)", "assay_type": "cell-based, human", "conditions": "Homo sapiens, read-out: GI50 (converted)"}}, "note": "Read-outs that look alike come from different tables or passages of the source.", "data": [{"smiles": "Cc1[nH]c2ccccc2c1CCNCc1ccc(/C=C/C(=O)NO)cc1", "note": "[LBH589]", "values": [{"measurement": "Subtype specificity", "setting": "[1]", "value": "Luminal"}, {"measurement": "GI50", "setting": "[2]; 600MPE cell line, censored GI50 values", "value": 186, "unit": "nM"}, {"measurement": "GI50", "setting": "[2]; AU565, AU565 cell line, censored GI50 values", "value": 105, "unit": "nM"}, {"measurement": "GI50", "setting": "[2]; AU565, cell line AU565", "value": 105, "unit": "nM"}, {"measurement": "GI50", "setting": "[2]; BT-20, BT20 cell line, censored GI50 values", "value": 389, "unit": "nM"}, {"measurement": "GI50", "setting": "[2]; BT-20, cell line BT20", "value": 389, "unit": "nM"}, {"measurement": "GI50", "setting": "[2]; BT-474, BT474 cell line, censored GI50 values", "value": 34.7, "unit": "nM"}, {"measurement": "GI50", "setting": "[2]; BT-474, cell line BT474", "value": 34.7, "unit": "nM"}, {"measurement": "GI50", "setting": "[2]; BT-483, BT483 cell line, censored GI50 values", "value": 72.4, "unit": "nM"}, {"measurement": "GI50", "setting": "[2]; BT-483, cell line BT483", "value": 72.4, "unit": "nM"}, {"measurement": "GI50", "setting": "[2]; CAMA-1, CAMA1 cell line, censored GI50 values", "value": 61.7, "unit": "nM"}, {"measurement": "GI50", "setting": "[2]; CAMA-1, cell line CAMA1", "value": 61.7, "unit": "nM"}, {"measurement": "GI50", "setting": "[2]; HCC38, HCC38 cell line, censored GI50 values", "value": 35.5, "unit": "nM"}, {"measurement": "GI50", "setting": "[2]; HCC38, cell line HCC38", "value": 35.5, "unit": "nM"}, {"measurement": "GI50", "setting": "[2]; HCC70, HCC70 cell line, censored GI50 values", "value": 77.6, "unit": "nM"}, {"measurement": "GI50", "setting": "[2]; HCC70, cell line HCC70", "value": 77.6, "unit": "nM"}, {"measurement": "GI50", "setting": "[2]; HCC1143, HCC1143 cell line, censored GI50 values", "value": 83.2, "unit": "nM"}, {"measurement": "GI50", "setting": "[2]; HCC1143, cell line HCC1143", "value": 83.2, "unit": "nM"}, {"measurement": "GI50", "setting": "[2]; HCC1187, HCC1187 cell line, censored GI50 values", "value": 174, "unit": "nM"}, {"measurement": "GI50", "setting": "[2]; HCC1187, cell line HCC1187", "value": 174, "unit": "nM"}, {"measurement": "GI50", "setting": "[2]; HCC1419, HCC1419 cell line, censored GI50 values", "value": 58.9, "unit": "nM"}, {"measurement": "GI50", "setting": "[2]; HCC1419, cell line HCC1419", "value": 58.9, "unit": "nM"}, {"measurement": "GI50", "setting": "[2]; HCC1428, HCC1428 cell line, censored GI50 values", "value": 135, "unit": "nM"}, {"measurement": "GI50", "setting": "[2]; HCC1428, cell line HCC1428", "value": 135, "unit": "nM"}, {"measurement": "GI50", "setting": "[2]; HCC1500, HCC1500 cell line, censored GI50 values", "value": 162, "unit": "nM"}, {"measurement": "GI50", "setting": "[2]; HCC1500, cell line HCC1500", "value": 162, "unit": "nM"}, {"measurement": "GI50", "setting": "[2]; HCC1806, HCC1806 cell line, censored GI50 values", "value": 151, "unit": "nM"}, {"measurement": "GI50", "setting": "[2]; HCC1806, cell line HCC1806", "value": 151, "unit": "nM"}, {"measurement": "GI50", "setting": "[2]; HCC1937, HCC1937 cell line, censored GI50 values", "value": 191, "unit": "nM"}, {"measurement": "GI50", "setting": "[2]; HCC1937, cell line HCC1937", "value": 191, "unit": "nM"}, {"measurement": "GI50", "setting": "[2]; HCC1954, HCC1954 cell line, censored GI50 values", "value": 372, "unit": "nM"}, {"measurement": "GI50", "setting": "[2]; HCC1954, cell line HCC1954", "value": 372, "unit": "nM"}, {"measurement": "GI50", "setting": "[2]; HCC2185 cell line, censored GI50 values", "value": 69.2, "unit": "nM"}, {"measurement": "GI50", "setting": "[2]; HCC3153 cell line, censored GI50 values", "value": 295, "unit": "nM"}, {"measurement": "GI50", "setting": "[2]; MCF7, MCF7 cell line, censored GI50 values", "value": 79.4, "unit": "nM"}, {"measurement": "GI50", "setting": "[2]; MCF7, cell line MCF7", "value": 79.4, "unit": "nM"}, {"measurement": "GI50", "setting": "[2]; MDA-MB-134-VI, MDAMB134VI cell line, censored GI50 values", "value": 66.1, "unit": "nM"}, {"measurement": "GI50", "setting": "[2]; MDA-MB-175-VII, MDAMB175VII cell line, censored GI50 values", "value": 389, "unit": "nM"}, {"measurement": "GI50", "setting": "[2]; MDA-MB-361, MDAMB361 cell line, censored GI50 values", "value": 50.1, "unit": "nM"}, {"measurement": "GI50", "setting": "[2]; MDA-MB-361, cell line MDAMB361", "value": 50.1, "unit": "nM"}, {"measurement": "GI50", "setting": "[2]; MDA-MB-415, MDAMB415 cell line, censored GI50 values", "value": 39.8, "unit": "nM"}, {"measurement": "GI50", "setting": "[2]; MDA-MB-415, cell line MDAMB415", "value": 39.8, "unit": "nM"}, {"measurement": "GI50", "setting": "[2]; MDA-MB-436, MDAMB436 cell line, censored GI50 values", "value": 251, "unit": "nM"}, {"measurement": "GI50", "setting": "[2]; MDA-MB-436, cell line MDAMB436", "value": 251, "unit": "nM"}, {"measurement": "GI50", "setting": "[2]; MDA-MB-453, MDAMB453 cell line, censored GI50 values", "value": 49, "unit": "nM"}, {"measurement": "GI50", "setting": "[2]; MDA-MB-453, cell line MDAMB453", "value": 49, "unit": "nM"}, {"measurement": "GI50", "setting": "[2]; MDA-MB-468, MDAMB468 cell line, censored GI50 values", "value": 234, "unit": "nM"}, {"measurement": "GI50", "setting": "[2]; MDA-MB-468, cell line MDAMB468", "value": 234, "unit": "nM"}, {"measurement": "GI50", "setting": "[2]; SK-BR-3, SKBR3 cell line, censored GI50 values", "value": 55, "unit": "nM"}, {"measurement": "GI50", "setting": "[2]; SK-BR-3, cell line SKBR3", "value": 55, "unit": "nM"}, {"measurement": "GI50", "setting": "[2]; SUM52PE, SUM52PE cell line, censored GI50 values", "value": 170, "unit": "nM"}, {"measurement": "GI50", "setting": "[2]; SUM52PE, cell line SUM52PE", "value": 170, "unit": "nM"}, {"measurement": "GI50", "setting": "[2]; SUM149PT, SUM149PT cell line, censored GI50 values", "value": 316, "unit": "nM"}, {"measurement": "GI50", "setting": "[2]; SUM149PT, cell line SUM149PT", "value": 316, "unit": "nM"}, {"measurement": "GI50", "setting": "[2]; SUM185PE, SUM185PE cell line, censored GI50 values", "value": 77.6, "unit": "nM"}, {"measurement": "GI50", "setting": "[2]; SUM185PE, cell line SUM185PE", "value": 77.6, "unit": "nM"}, {"measurement": "GI50", "setting": "[2]; SUM1315MO2, SUM1315MO2 cell line, censored GI50 values", "value": 251, "unit": "nM"}, {"measurement": "GI50", "setting": "[2]; SUM-159-PT, SUM159PT cell line, censored GI50 values", "value": 132, "unit": "nM"}, {"measurement": "GI50", "setting": "[2]; SUM-159-PT, cell line SUM159PT", "value": 132, "unit": "nM"}, {"measurement": "GI50", "setting": "[2]; T47D, T47D cell line, censored GI50 values", "value": 151, "unit": "nM"}, {"measurement": "GI50", "setting": "[2]; T47D, cell line T47D", "value": 151, "unit": "nM"}, {"measurement": "GI50", "setting": "[2]; UACC-812, UACC812 cell line, censored GI50 values", "value": 129, "unit": "nM"}, {"measurement": "GI50", "setting": "[2]; UACC-812, cell line UACC812", "value": 129, "unit": "nM"}, {"measurement": "GI50", "setting": "[2]; ZR-75-1, ZR751 cell line, censored GI50 values", "value": 195, "unit": "nM"}, {"measurement": "GI50", "setting": "[2]; ZR-75-1, cell line ZR751", "value": 195, "unit": "nM"}, {"measurement": "GI50", "setting": "[2]; ZR-75B, ZR75B cell line, censored GI50 values", "value": 83.2, "unit": "nM"}, {"measurement": "GI50", "setting": "[2]; ZR-75B, cell line ZR75B", "value": 83.2, "unit": "nM"}, {"measurement": "GI50", "setting": "[2]; cell line 600MPE", "value": 186, "unit": "nM"}, {"measurement": "GI50", "setting": "[2]; cell line HCC2185", "value": 69.2, "unit": "nM"}, {"measurement": "GI50", "setting": "[2]; cell line HCC3153", "value": 295, "unit": "nM"}, {"measurement": "GI50", "setting": "[2]; cell line MDAMB134V", "value": 66.1, "unit": "nM"}, {"measurement": "GI50", "setting": "[2]; cell line MDAMB175V", "value": 389, "unit": "nM"}, {"measurement": "GI50", "setting": "[2]; cell line SUM1315MO", "value": 251, "unit": "nM"}]}]}
